Test results published in article PMC4774911, “Biochemical Screening of Five Protein Kinases from Plasmodium falciparum against 14,000 Cell-Active Compounds” (PLoS ONE, 2016).
Read-outs that look alike come from different tables or passages of the source.

Assays:
[1] = biological target: T1, Plasmodium falciparum protein kinase 6 (PK6) (Plasmodium falciparum, UniProt Q8IDW1); test: biochemical
T1 construct: 6-Histidine (N); made in house
T1 sequence (Q8IDW1 1-305): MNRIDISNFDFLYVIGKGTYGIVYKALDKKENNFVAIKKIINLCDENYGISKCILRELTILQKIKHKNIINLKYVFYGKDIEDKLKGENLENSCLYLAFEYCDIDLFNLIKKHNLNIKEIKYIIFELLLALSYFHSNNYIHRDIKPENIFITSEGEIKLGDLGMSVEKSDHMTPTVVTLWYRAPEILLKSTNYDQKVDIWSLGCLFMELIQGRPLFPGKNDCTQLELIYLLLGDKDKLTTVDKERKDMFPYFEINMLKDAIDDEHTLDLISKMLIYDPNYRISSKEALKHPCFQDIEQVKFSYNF

[2] = system: P. falciparum 3D7 cells; conditions: P. falciparum 3D7; ref ChEMBL; cited from earlier work
[3] = system: 3D7 PFLDH; design: method as in ChEMBL; conditions: ref ChEMBL; cited from earlier work
[4] = system: P. falciparum DD2; design: method as in ChEMBL; conditions: ref ChEMBL; cited from earlier work
[5] = system: HepG2 cells; conditions: HepG2 cells; ref ChEMBL; cited from earlier work
[6] = biological target: T2, Plasmodium falciparum calcium-dependent protein kinase 1 (CDPK1) (Plasmodium falciparum, UniProt P62344); test: CDPK1 Kinase-Glo ATP-consumption screen and dose-response; format: biochemical
T2 construct: 6-Histidine (N); made in house
Summary of the method: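 ATP consumption by recombinant P. falciparum CDPK4 or CDPK1 measured as residual ATP by Kinase-Glo luminescence, with 40 μM Syntide-2 substrate and 90 min incubation stopped with 5 mM EGTA. Single-point screen at 1 μM final, followed by dose-response; no-substrate wells as negative control.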

[7] = hits below 1 uM, read-out: PK6 IC50
[8] = hits below 1 uM, read-out: CDPK1 IC50

T2 sequence (P62344 whole entry): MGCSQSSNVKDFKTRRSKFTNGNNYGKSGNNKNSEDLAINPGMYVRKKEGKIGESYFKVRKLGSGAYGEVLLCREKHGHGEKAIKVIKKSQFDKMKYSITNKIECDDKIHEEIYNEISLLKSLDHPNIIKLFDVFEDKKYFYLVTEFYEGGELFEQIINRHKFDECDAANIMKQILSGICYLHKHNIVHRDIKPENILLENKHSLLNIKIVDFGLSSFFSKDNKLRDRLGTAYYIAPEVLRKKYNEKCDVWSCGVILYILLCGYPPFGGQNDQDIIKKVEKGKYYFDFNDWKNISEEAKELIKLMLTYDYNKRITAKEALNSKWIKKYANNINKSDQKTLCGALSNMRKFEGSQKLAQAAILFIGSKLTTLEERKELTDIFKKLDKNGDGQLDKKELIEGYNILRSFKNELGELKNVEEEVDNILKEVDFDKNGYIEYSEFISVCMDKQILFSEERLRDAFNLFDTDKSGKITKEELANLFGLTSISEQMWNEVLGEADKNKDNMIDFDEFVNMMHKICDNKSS

| Structure (SMILES) | IC50 [1, 7] [nM] | PCT_IHB_3D7 [2] | pXC50_3D7 [2] | PCT_INHIB_3D7_PFLDH [3] | PCT_INHB_DD2 [4] | PCT_INHIB_HEPG2 [5] | IC50 [6, 8] [nM] | IC50 [1] [nM] | IC50 [6] [nM] |
| --- | --- | --- | --- | --- | --- | --- | --- | --- | --- |
| Br.CC(=O)Nc1nc(C)c(-c2csc(Nc3ccc(Cl)cc3)n2)s1 [TCMDC-123995] | 95 | 96 | 6.589 | 0 | 93 | 14 |  |  |  |
| CN1CCC(NC(=O)c2cccc(Nc3cc(Nc4cccc(Br)c4)ncn3)c2)CC1 [TCMDC-124773] | 602 | 94 | 5.997 | 1 | 6 | 25 |  |  |  |
| Cc1cc(Nc2nc(Nc3cccc(Cl)c3)nc3ccccc23)n[nH]1 [TCMDC-134695] | 151 | 100 | 6.542 | 0 | 95 | 9 |  |  |  |
| C(=N\Nc1nccc2sc(-c3ccccc3)cc12)/c1cccnc1 [TCMDC-135190] | 278 | 97 | 6.086 | 8 | 10 | 0 |  |  |  |
| COc1ccc(Nc2ncc3c(-c4cccc(NC(=O)Cc5ccc(O)cc5)c4)c[nH]c3n2)cc1OC [TCMDC-135248] | 445 | 100 | 6.244 | 0 | 99 | 48 | 98 |  |  |
| N=C(N)c1ccc(Nc2nccc(Nc3nc(-c4ccccc4)cs3)n2)cc1.O=C(O)C(F)(F)F [TCMDC-136090] | 413 | 96 | 6.122 | 0 | 75 | 13 |  |  |  |
| Cl.N=C(N)c1ccc(Nc2nc(Nc3ccc(-c4ccccc4)cc3)ncc2[N+](=O)[O-])cc1 [TCMDC-136145] | 164 | 99 | 6.095 | 0 | 35 | 11 |  |  |  |
| O=C(Cc1ccc(Nc2nccc(Nc3cccc4[nH]ncc34)n2)cc1)Nc1ccc(C(F)(F)F)cc1 [TCMDC-136243] | 167 | 100 | 6.052 | 0 | 69 | 12 |  |  |  |
| Cc1ccc(S(=O)(=O)Nc2ccc(Nc3nccc(Nc4cccc5[nH]ncc45)n3)cc2)cc1 [TCMDC-136297] | 823 | 90 | 6.019 | 6 | 5 | 57 |  |  |  |
| C#CCNC(=O)c1ccc(-c2ccnc(Nc3cccc(CCCN4CCOCC4)c3)n2)s1 [TCMDC-136764] | 181 | 82 | 5.998 | 0 | 45 | 54 |  |  |  |
| Cn1c(=O)c(-c2c(Cl)cccc2Cl)cc2cnc(Nc3ccc(N4CCOCC4)cc3)nc21 [TCMDC-137156] | 145 | 98 | 6.794 | 4 | 97 | 64 |  |  |  |
| Cc1ccc(Nc2ccnc(Nc3ccc4c(c3)CS(=O)(=O)C4)n2)cc1O.Cl [TCMDC-138484] | 122 | 100 | 6.14 | 5 | 76 | 82 | 416 |  |  |
| N#Cc1cnc(Nc2ccc(Oc3ccccc3)cc2)nc1Nc1cccc(S(N)(=O)=O)c1 [TCMDC-138613] | 201 | 96 | 6.256 | 3 | 86 | 74 |  |  |  |
| CCN(CC)CCNC(=O)c1ccc(Nc2ncc([N+](=O)[O-])c(Nc3ccccc3OC)n2)cc1.Cl [TCMDC-138727] | 110 | 97 | 6.841 | 0 | 58 | 59 |  |  |  |
| COc1cccc(-n2ncc3c(N/N=C/c4ccc(CN(C)CCN(C)C)cc4)ncnc32)c1 [TCMDC-138728] | 58 | 100 | 6.049 | 0 | 91 | 29 |  |  |  |
| CN(c1ccc2c(c1)nc(NCc1ccccc1)n2C)c1ccnc(Nc2ccc(CS(C)(=O)=O)cc2)n1.Cl [TCMDC-138740] | 464 | 94 | 6.075 | 4 | 69 | 61 |  |  |  |
| O=CO.O=S1(=O)NCc2ccc(Nc3nccc(Nc4ccc5c(cnn5Cc5ccccc5)c4)n3)cc21 [TCMDC-138840] | 265 | 94 | 6.125 | 0 | 33 | 0 | 110 |  |  |
| CCN(CC)CCOc1ccc(Nc2ncc3cc(-c4c(Cl)cccc4Cl)c(=O)n(C)c3n2)cc1 [TCMDC-140940] |  | 90 | 5.929 | 1 | 91 | 72 |  | 350 | 780 |
| Cc1cc(F)ccc1-c1nc(Nc2ccncc2)c2ccn(C)c2n1 [TCMDC-141231] |  | 89 | 6.027 | 5 | 8 | 9 | 40 |  |  |
| Cn1cnc2c(Nc3ccncc3)nc(-c3ccc4c(c3)OCO4)nc21.O=C(O)C(F)(F)F [TCMDC-141274] | 500 | 96 | 5.953 | 0 | 2 | 19 |  |  |  |
| Cl.Nc1ncnc2occ(-c3ccc(NC(=O)Nc4cc(C(F)(F)F)ccc4F)cc3)c12 [TCMDC-141371] | 335 | 99 | 5.765 | 0 | 99 | 57 | 165 |  |  |
| Cn1nc(-c2ccc(NC(=O)Nc3ccc4ccccc4c3)c(F)c2)c2cnc(NCCN3CCOCC3)nc21.O=C(O)C(F)(F)F [TCMDC-141561] | 860 | 93 | 5.992 | 1 | 3 | 62 |  |  |  |
| Cc1ccc(Nc2nccc(Nc3ccc4c(c3)nc(Nc3cc(C(C)(C)C)on3)n4C)n2)cc1S(C)(=O)=O [TCMDC-141889] |  | 100 | 6.222 | 0 | 99 | 30 | 242 |  |  |
| Cc1ccc(Nc2nc3cc(Nc4ccnc(Nc5cccc(CS(C)(=O)=O)c5)n4)ccc3o2)cc1.O=C(O)C(F)(F)F [TCMDC-141957] | 229 | 100 | 6.0348 | 4 | 81 | 55 |  |  |  |
